Reference: paper PMC6420151 (Journal of medicinal chemistry, 2017)
Blank lines part the entries; values can stand above or below the molecule they belong to.

Assays:
Assay type in all cases: biochemical
MMP-13 [1] = biological target: T1, MMP-13 (Homo sapiens, UniProt P45452)
MMP-2 = biological target: T2, MMP-2 (Homo sapiens, UniProt P08253); assay: MMP-2 enzyme assay with fTHP substrates; conditions: 200 nM
T2 sequence (P08253 110-660): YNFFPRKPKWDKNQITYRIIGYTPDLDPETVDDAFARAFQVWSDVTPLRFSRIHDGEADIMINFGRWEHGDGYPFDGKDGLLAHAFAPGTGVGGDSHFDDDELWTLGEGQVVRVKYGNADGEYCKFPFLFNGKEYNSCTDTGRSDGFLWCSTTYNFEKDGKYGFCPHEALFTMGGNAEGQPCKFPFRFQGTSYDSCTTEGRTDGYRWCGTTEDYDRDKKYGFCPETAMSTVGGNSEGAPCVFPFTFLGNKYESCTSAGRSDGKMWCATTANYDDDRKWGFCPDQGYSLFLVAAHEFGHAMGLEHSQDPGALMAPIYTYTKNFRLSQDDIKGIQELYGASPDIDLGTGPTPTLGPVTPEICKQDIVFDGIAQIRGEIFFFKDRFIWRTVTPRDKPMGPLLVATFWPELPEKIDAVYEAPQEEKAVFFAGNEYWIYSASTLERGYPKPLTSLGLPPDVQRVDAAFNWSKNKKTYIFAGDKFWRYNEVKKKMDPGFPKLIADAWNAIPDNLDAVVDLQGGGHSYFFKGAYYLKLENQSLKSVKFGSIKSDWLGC

MMP-8 = MMP-8 (Homo sapiens, UniProt P22894); assay: MMP-8 enzyme assay with fTHP substrates; conditions: 200 nM
MMP-13 [2] = biological target: T1, MMP-13; assay: In vitro type II collagen cleavage assay; conditions: 20 μM; intact type II collagen remaining after 24 h at 37 °C

MMP-8, sequence (P22894 101-467, species assumed): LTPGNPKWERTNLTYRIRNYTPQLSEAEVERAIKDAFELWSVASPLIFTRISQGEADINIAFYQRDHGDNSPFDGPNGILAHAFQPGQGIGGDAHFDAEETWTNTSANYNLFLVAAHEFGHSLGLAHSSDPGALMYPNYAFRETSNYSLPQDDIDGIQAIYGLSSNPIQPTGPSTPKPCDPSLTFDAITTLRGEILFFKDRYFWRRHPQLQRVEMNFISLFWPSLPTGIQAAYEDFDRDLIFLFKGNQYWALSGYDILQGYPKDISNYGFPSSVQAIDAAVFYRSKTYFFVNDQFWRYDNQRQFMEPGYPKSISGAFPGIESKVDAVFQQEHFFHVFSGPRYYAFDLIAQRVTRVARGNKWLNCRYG

- improvement of MMP-13 inhibition potency compared to 5 (MMP-13 [1]; compared to starting inhibitor 5): ~300 fold
- inhibition of MMP-2 in single-dose assay (MMP-2): moderately active
- inhibition of MMP-8 in single-dose assay (MMP-8): moderately active
SMILES: CNC(=O)[C@@H](NC(=O)c1ccc(-c2ccc(CSc3nc4c(c(=O)[nH]3)CCC4)cc2)o1)C(C)C [(S)-17a]

- loss of inhibition activity vs MMP-13 compared to the (S)-enantiomer (MMP-13 [1]; D-valine analogue compared to L-valine analogue): ca. 40 fold
SMILES: CNC(=O)[C@H](NC(=O)c1ccc(-c2ccc(CSc3nc4c(c(=O)[nH]3)CCC4)cc2)o1)C(C)C [(R)-17a]

- inhibition of collagenolysis (type II collagen cleavage by MMP-13) (MMP-13 [2]): nearly inactive
SMILES: Cc1ccc(CSc2nc(O)c3c(n2)CCC3)cc1 [Compound 5]
